The values below come from PubChem BioAssay AID698 (NMMLSC, 2007).

The source made the active and inactive calls. No rule for the calls is given here.

The target in the test is N-formyl peptide receptor 2 (Homo sapiens) (UniProt P25090). The experiment in a line: FPRL1 antagonists blocking calcium signaling, confirmation, cell-based, calcium response (AID 698). To be noted: FPRL1-expressing cells, ligand-induced calcium response, antagonist mode; stronger effect = higher value; concentration not given here.
Chain of N-formyl peptide receptor 2 (Homo sapiens) (P25090 whole entry, looked up): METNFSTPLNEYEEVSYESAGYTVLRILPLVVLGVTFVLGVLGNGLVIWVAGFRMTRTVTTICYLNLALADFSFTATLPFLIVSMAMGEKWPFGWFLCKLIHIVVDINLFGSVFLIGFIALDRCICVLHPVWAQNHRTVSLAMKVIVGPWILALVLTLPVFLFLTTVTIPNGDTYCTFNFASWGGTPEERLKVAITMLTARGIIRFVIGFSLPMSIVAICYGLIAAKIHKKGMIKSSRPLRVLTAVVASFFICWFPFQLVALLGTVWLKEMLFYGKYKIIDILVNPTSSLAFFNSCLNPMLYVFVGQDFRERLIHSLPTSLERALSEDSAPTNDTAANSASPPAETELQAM
Broadly, the inhibition is the percentage by which the read-out fell short of the control. As for `O=C(O)CCCNc1cc(N2CCC3(CC2)OCCO3)c2noc3c2c1C(=O)c1ccccc1-3`, the inhibition was 0% (inactive). As for `COc1ccc(-c2cn3cccnc3n2)cc1NC(=O)C1CC1`, the inhibition was 98.1%.

Regarding `Nc1ccc(Nc2ccccc2N)cc1`, the inhibition is 69.5% (inactive). The same measure for `CCOc1cc(C(=O)NCc2nnc(SCC(=O)OC)n2C)cc(OCC)c1OCC`: 0% (inactive); for `COc1ccc(-c2cc(C(F)(F)F)nc(N3CCN(Cc4ccccc4)CC3)n2)cc1OC`: 96.3%. The same measure for `CC(=O)OCCNc1cc(N2CCN(C)CC2)c2noc3c2c1C(=O)c1ccccc1-3`: 93.4%. The same measure for `CCOC(=O)CSc1nnc(CNC(=O)c2cc(OCC)c(OCC)c(OCC)c2)n1C`: 0% (inactive).
